Measurements from patent US20050267096A1, “New indazole and indolone derivatives and their use pharmaceuticals” (Pfizer Inc, priority 2004, published 2005).

What was measured:
dopamine D2 receptor = dopamine D2 receptor (Homo sapiens, UniProt P14416); experiment: D3/D2 agonist assay, functional response at D2 receptor; format: cell-based; conditions: at 1000 nM; relative to the maximal effect of pramipexole
Description: (§1) Activity at the dopamine D3 receptor may be determined using the methods described in WO 2004/052372. […] Selectivity is calculated as the D2 EC50 value divided by the D3 EC50 value. Where the value of the D2 EC50 was >10000, a figure of 10000 was used in the calculation.
(§2) Against the D2 receptor this compound gave only a 28% repsonse (relative to the maximal effect of pramipexole) at 1000 nM. Suitable auxiliary active agents for use in the combinations of the present invention include: • 1) Naturally occurring or synthetic prostaglandins or esters thereof. Suitable prostaglandins for use herein include compounds such as alprostadil, prostaglandin E1, prostaglandin E0, 13,14-dihydroprosta glandin E1, prostaglandin E2, eprostinol, natural synthetic and semi-synthetic prostaglandins and derivatives thereof including those described in WO-00033825 and/or U.S. Pat. No. 6,037,346 issued on 14 Mar. 2000 all incorporated herein by reference, PGE0, PGE1, PGA1, PGB1, PGF1 α, 19-hydroxy PGA1, 19-hydroxy-PGB1, PGE2, PGB2, 19-hydroxy-PGA2, 19-hydroxy-PGB2, PGE3α, carboprost tromethamine dinoprost, tromethamine, dinoprostone, lipo prost, gemeprost, metenoprost, sulprostune, tiaprost and moxisylate; • 2) α-adrenergic receptor antagonist compounds also known as α-adrenoceptors or α-receptors or α-blockers. […]

dopamine D3 receptor = dopamine D3 receptor (Homo sapiens, UniProt P35462); experiment: D3/D2 agonist assay, functional potency at D3 receptor; format: cell-based
Description: as §1, §2

Chain of dopamine D3 receptor (P35462 whole entry, species assumed): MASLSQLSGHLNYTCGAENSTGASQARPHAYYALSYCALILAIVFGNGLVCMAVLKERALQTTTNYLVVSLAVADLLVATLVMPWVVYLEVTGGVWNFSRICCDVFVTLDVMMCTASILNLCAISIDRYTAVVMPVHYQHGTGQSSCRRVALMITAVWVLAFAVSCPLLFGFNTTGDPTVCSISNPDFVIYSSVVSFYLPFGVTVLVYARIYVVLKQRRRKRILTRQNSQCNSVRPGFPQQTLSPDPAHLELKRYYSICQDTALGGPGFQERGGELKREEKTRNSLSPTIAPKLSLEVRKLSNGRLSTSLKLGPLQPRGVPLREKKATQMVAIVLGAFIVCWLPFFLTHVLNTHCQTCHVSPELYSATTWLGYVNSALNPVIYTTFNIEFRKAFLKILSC
Chain of dopamine D2 receptor (P14416 whole entry): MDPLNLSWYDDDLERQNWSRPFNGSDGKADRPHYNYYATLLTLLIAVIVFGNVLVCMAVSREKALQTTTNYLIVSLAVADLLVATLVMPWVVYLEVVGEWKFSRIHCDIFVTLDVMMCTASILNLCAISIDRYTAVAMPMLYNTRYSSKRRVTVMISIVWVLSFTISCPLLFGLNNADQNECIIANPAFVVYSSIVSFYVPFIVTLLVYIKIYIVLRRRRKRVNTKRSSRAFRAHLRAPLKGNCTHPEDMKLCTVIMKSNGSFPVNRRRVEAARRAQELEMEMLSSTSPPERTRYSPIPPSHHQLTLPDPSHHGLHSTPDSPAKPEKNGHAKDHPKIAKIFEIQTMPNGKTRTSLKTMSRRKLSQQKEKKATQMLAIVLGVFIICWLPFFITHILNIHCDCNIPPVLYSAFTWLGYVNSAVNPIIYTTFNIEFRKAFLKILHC

## CCCN1CC(c2cccc3[nH]ncc23)C1 [Example 13, 4-(1-propylazetidin-3-yl)-1H-indazole]
Dopamine D2 receptor
  response against the D2 receptor: 28%
Dopamine D3 receptor; methods described in WO 2004/052372, read-out: functional potency at the D3 receptor, expressed as an EC50
  EC50: 0.038 µM
Dopamine D3 receptor; relative to the maximal effect of standard agent pramipexole, read-out: Emax (maximal response value) at the D3 receptor
  Emax: 74%
